The subject of one assay is HIF-1α protein. As to the kind of experiment: Hypoxia induced HIF-1α protein accumulation in 293T cells (immunoblotting). It is filed as cell-based, human. Particulars: 250 nM, 1 h preincubation, hypoxia 4 h, 1% O2. The method, then: Effects of IMD-026259, IMD-026260 and IMD-019064 on the stabilisation/accumulation of HIF-1α protein were investigated. 293T cells were preincubated with the indicated concentrations of all three compounds. After 1 h of pre-incubation, 293T cells were pre-incubated with the indicated concentrations of compounds and then further incubated under normoxic or hypoxic (4 h, 1% O2) conditions respectively. After lysis of cells in 1×SDS sample buffer and sonication, the samples were analyzed for HIF-1α abundance by immunoblotting.

The test system of assay [1] is PDK1 (pyruvate dehydrogenase kinase1). As to the kind of experiment: HIF-1 target gene PDK1 expression in 293T cells by real-time PCR. It is filed as cell-based. The note with it: Homo sapiens, HEK-293T, 1 h pretreatment, 8 h hypoxia, read-out: IC50, suppression of endogenous PDK1 gene expression. As to the method: Human 293T cells were cultivated either under normoxic conditions or under hypoxic conditions (1% oxygen) for 4 and 8 hs respectively. Cells were harvested, followed by the isolation of RNA and the generation of cDNAs from Oligo (dT)20 primers using a Reverse Transcriptase kit. Then gene expression was measured by real-time PCR for the following two selected HIF-1α target genes: LDH-A (lactate dehydrogenase isoform A), and PDK1 (pyruvate dehydrogenase kinase1). Real-time PCR was performed with cDNA using specific primers and the SYBR Green I detection chemistry system (Applied Biosystems), utilizing an ABI Prism 7300 system. Actin was also measured as an internal control. The relative abundance of the different genes was calculated by the comparative CT method. In order to facilitate comparison, gene expression under normoxic conditions was arbitrarily set to 1 for each of the three genes. Two independent experiments confirmed PDK1 as the gene which was induced most prominently compared to LDH.
To investigate the capability of the compounds to inhibit PDK1, 293T cells were pretreated for 1 h with 3 different concentrations of the respective inhibitors (IMD-019064; IMD-026259; and IMD-026260). Subsequently, cells were incubated under normoxic/hypoxic conditions for further 8 h and the expression of PDK1 was quantified by real-time PCR as described above.
(Real-time PCR tracks product formation cycle by cycle.)

The next assay relates to HUVEC. As to the kind of experiment: Spheroid-based angiogenesis assay, Deferoxamine (hypoxia) induced HUVEC sprouting. It is filed as cell-based, human. As to the method: Prior application the stock solution [100 mM] of IMD-019064 was diluted 1:10 in DMSO and serially diluted in half logarithmic steps covering the concentration range from 10 mM to 1 μM using 100% DMSO. The final assay concentration ranged from 100 μM to 10 nM with a final DMSO concentration in the assay of 1%. The experiments were pursued in modification of the originally published protocol (Korff and Augustin: J Cell Sci 112: 3249-58, 1999). In brief, spheroids were prepared as described by Korff and Augustin: J Cell Biol 143: 1341-52, 1998) by pipetting 500 endothelial cells (EC) in a hanging drop on plastic dishes to allow overnight spheroid aggregation. 50 EC spheroids were then embedded in 0.9 ml of a 3D collagen matrix and pipetted into individual wells of a 24 well plate to allow polymerization.
Plates were incubated at 37° C. for 24 hours and fixed by adding 4% paraformaldehyde. The cumulative sprout length of 10 randomly selected spheroids per data point was analyzed and the relative inhibition by the test compound determined. Fitting of IC50 curves and calculation of IC50 values was performed with GraphPad Prism 5.01. Sprouting intensity of EC and fibroblast spheroids was quantitated by an image analysis system using an inverted microscope and the digital imaging software Analysis 3.2 (Soft imaging system, Munster, Germany). In parallel NHDF (fibroblast) spheroids were embedded in a 3D collagen gel and treated for 24 h with different concentrations of IMD-019064. The cumulative sprout length of 10 randomly selected spheroids per data point was analyzed according to the procedure used for the HUVEC experiment.
The same assays were performed with IMD-026260; IMD-026259; Sutent® (Sunitinib) and Sorafenib (Nexavar®) (see Table 3 for final compound concentrations).

The test system of assay [2] is human vasculature (CD34 positive vessels) from transplanted HUVECs. As to the kind of experiment: Spheroid-based in vivo angiogenesis assay in SCID mice. The note with it: 0.3 mg/ml p.o. every 3rd day, pvalue=0.0001. The source says: Human endothelial cells (ECs; HUVECs) are applied subcutaneously in (n=10) SCID mice embedded in extracellular matrix components in the presence of smooth muscle cells (SMCs) and fibroblasts (NHDFs). The transplanted human ECs (EC spheroids in combination with ECs in suspension) form a complex and perfused three dimensional network of capillaries of human origin that is anastomosed (connected with) with the mouse vasculature and host (mouse) pericyte-covered. The quality of the newly formed vasculature is monitored by micro vessel density counting. Aim of the study is to investigate the anti-angiogenic potential of the test items in the spheroid-based in vivo angiogenesis assay. […]
In the standard assay (with VEGF-A and FGF-2 stimulation and only ECs) the first perfused vessels are usually detected at day 4 to day 6. […]
For histological examination of the human vasculature, paraffin sections (thickness=8-10 μm) were prepared from all plugs. Blood vessel formation was detected by staining the sections for human CD34 (NCL-END, Menarini, Berlin, Germany). Three sections per plug were analysed and three images were taken from each section at a magnification of 200× using the Eclipse TE2000-U microscope (Nikon, Kanagawa, Japan). The area analyzed per section (three images) was 0.44 mm^2. […]

What is called IC50 is the concentration that gives 50% inhibition. `CNCCOc1ccc2c(c1)OC1(c3ccc(Cl)cc3)C(c3ccccc3)CC(O)C21O` (centres unmarked) [IMD-026260, (1,3a,8b)-3a-(4-chlorophenyl)-6-(2-(methylamino)ethoxy)-3-phenyl-2,3,3a,8b-tetrahydro-1H-benzo[d]cyclopenta[b]furan-1,8b-diol]: the “block of HIF-1α protein accumulation” value in the assay with HIF-1α protein was “almost completely block”. In addition, the IC50 came to 8 nM in assay [1] and 13 nM in the assay on HUVEC (Homo sapiens, HUVEC, Deferoxamine 100 μM, 24 hours, collagen matrix, read-out: IC50, hypoxia induced EC (HUVEC) sprouting). Moreover, in the assay on HUVEC (NHDF IC50 versus Deferoxamine-induced HUVEC IC50), the “difference in HUVEC and fibroblast sensitivity” value is listed as “greater than thirteen-fold”. Also, the “reduction of human vessel number compared to a vehicle control” value in assay [2] stood at 42%.

(Values after patent US20120040956A1, “INHIBITORS OF HIF-1 PROTEIN ACCUMULATION” (INTERMED DISCOVERY GMBH, priority 2008, published 2012).)
